Measurements reported in patent US20220395472A1 (Dermavant Sciences GmbH, priority 2021, published 2022).

Assays:
[1] = system: adults with plaque psoriasis; assay: Long-term extension study (PSOARING 3): PASI score, PASI75, PASI90; format: in vivo, human
Source text: The PASI scoring system is a widely used, standard, clinical tool for assessing the severity of psoriasis that takes into account the overall severity of erythema (redness), induration (plaque thickness), scale, and the extent of % BSA affected with psoriasis. The 3 clinical signs are each graded on a 5 point scale (0 to 4) and the % BSA affected is scored on a 7 point scale (0 to 6) for each of the 4 specified body regions (head, upper extremities, trunk, and lower extremities). Individual scores are multiplied by a weighted factor for each body region; the sum of these scores gives the overall PASI score. Higher scores indicate more severe disease. PASI is a static assessment made without reference to previous scores. Details on PASI calculation can be found in Appendix 2 of the protocol.

[2] = system: adults with plaque psoriasis; assay: Long-term extension study (PSOARING 3): patient-reported and investigator-assessed Local Tolerability Scale; format: in vivo, human; settings: all anatomic regions incl. sensitive areas; 40 weeks
Protocol: Tolerability is defined as the local tolerability using a patient-reported 5-point scale for burning/stinging and itching, and an investigator-assessed 5-point scale for dryness, erythema, and peeling.
Tolerability was assessed subjectively via subject and objectively via Investigator throughout the 40 weeks of the study. The patient-reported local tolerability scale utilized for self-reported tolerability assessment is shown in Table 20, while the investigator-assessed local tolerability scale utilized is shown in Table 21.

[3] = Maximal use study with serial PK sampling: plasma concentrations; format: in vivo, human; settings: between Days 1 and 29
Source text: (FIG. 2). This decline is further supported by serial PK data collected from previous clinical studies over 28 days of dosing and over 21 days of dosing.

[4] = Preclinical repeat-dose systemic exposure; format: in vivo
Source text: The reason for the decrease in plasma concentrations over time is unknown. Without wishing to be bound by theory, as the skin heals, there may be less penetration of the drug through the stratum corneum and into the systemic circulation since the barrier is restored.

[5] = system: adults with mild to severe plaque psoriasis; assay: PSOARING 1 & 2 12-week pivotal phase 3 trials; format: in vivo, human; settings: Week 12
Protocol: All secondary endpoints were met, with statistical significance. […] Here, we present further analyses of the DLQI results, including an evaluation of correlations between the DLQI and clinical efficacy as assessed by PGA and Psoriasis Area and Severity Index (PASI) scores in PSOARING 1 & 2.
The DLQI is a 10-item scale where each item rates impact on quality of life (QoL) on a 4-point scale from 0 (not at all) to 3 (very much); lower scores indicate higher QoL. Efficacy was evaluated using PGA and PASI. Spearman rank correlations were used to evaluate correlations between changes from baseline in efficacy and changes from baseline in QoL at Week 12. Analyses used observed cases and were based on the intention-to-treat population.

[6] = system: plaque psoriasis; assay: 12-week phase 2b trial in psoriasis; format: in vivo, human; settings: cream 1%; 12-week treatment
Source text: As mentioned, tapinarof is a novel therapeutic aryl hydrocarbon receptor modulating agent (TAMA) in clinical development for the topical treatment of psoriasis and atopic dermatitis. […] AhR modulates T cell responses both through intrinsic control of T cell subset differentiation and via controlling the function of antigen presenting cells. In addition, AhR signaling promotes the conversion of Th17 cells to type 1 regulatory T cells. Aberrant immune responses underpin the pathogenesis of both PsO and AD, and the wide expression of AhR in immune cells makes it an attractive target given the essential role of AhR in regulating inflammatory responses and skin homeostasis. […] These clinical data support the role of AhR in skin immune homeostasis. Given the multitude of AhR-dependent immunoregulatory mechanisms, AhR is an attractive target for novel immunotherapies with the potential to extend therapeutic efficacy following treatment discontinuation; this may provide a unique clinical benefit to patients.
Treatment-emergent adverse events (TEAEs) were reported with a higher frequency in the tapinarof groups than in the vehicle groups. […]

[7] = Week 16, LOCF, Tapinarof (Pivotal) group
[8] = Week 16, LOCF, Vehicle (Pivotal) group
[9] = Week 16, OC, Tapinarof (Pivotal) group
[10] = Week 16, OC, Vehicle (Pivotal) group
[11] = Week 16, Observed Cases, Overall
[12] = Week 16, Observed Cases, Tapinarof (Pivotal) group
[13] = Week 16, Observed Cases, Vehicle (Pivotal) group
[14] = Week 40, LOCF, Tapinarof (Pivotal) group
[15] = Week 40, LOCF, Vehicle (Pivotal) group
[16] = Week 40, OC, Tapinarof (Pivotal) group
[17] = Week 40, OC, Vehicle (Pivotal) group
[18] = Week 40, Observed Cases, Tapinarof (Pivotal) group
[19] = Week 40, Observed Cases, Vehicle (Pivotal) group

## CC(C)c1c(O)cc(/C=C/c2ccccc2)cc1O [Tapinarof, 3,5-Dihydroxy-4-isopropyl-trans-stilbene]
[1]; Week 16, LOCF, Overall, listed as tapinarof
  PASI75 Responder: 21.3%
[1]; [7]
  PASI75 Non-Responder: 413/491 (84.1) %
  PASI75 Responder: 78/491 (15.9) %
  Subjects with reduction of ≥90% from Baseline in PASI (PASI90): 13.0%
  mean (SD) PASI score: 2.74 (3.324)
[1]; Week 16, LOCF, Tapinarof (Pivotal) group, listed as tapinarof
  PASI75 Responder: 15.9%
[1]; [8]
  PASI75 Non-Responder: 170/250 (68.0) %
  PASI75 Responder: 80/250 (32.0) %
  Subjects with reduction of ≥90% from Baseline in PASI (PASI90): 15.2%
  mean (SD) PASI score: 3.47 (3.794)
[1]; Week 16, LOCF, Vehicle (Pivotal) group, listed as tapinarof
  PASI75 Responder: 32.0%
[1]; [9]
  Subjects with reduction of ≥90% from Baseline in PASI (PASI90): 13.6%
  mean (SD) PASI score: 2.38 (2.652)
[1]; [10]
  Subjects with reduction of ≥90% from Baseline in PASI (PASI90): 15.9%
  mean (SD) PASI score: 2.95 (3.020)
[1]; [11]
  PASI75 Non-Responder: 478/619 (77.2) %
  PASI75 Responder: 141/619 (22.8) %
[1]; Week 16, Observed Cases, Overall, listed as tapinarof
  PASI75 Responder: 22.8%
[1]; [12]
  PASI75 Non-Responder: 342/412 (83.0) %
  PASI75 Responder: 70/412 (17.0) %
[1]; Week 16, Observed Cases, Tapinarof (Pivotal) group, listed as tapinarof
  PASI75 Responder: 17.0%
[1]; [13]
  PASI75 Non-Responder: 136/207 (65.7) %
  PASI75 Responder: 71/207 (34.3) %
[1]; Week 16, Observed Cases, Vehicle (Pivotal) group, listed as tapinarof
  PASI75 Responder: 34.3%
[1]; Week 16 LOCF, Overall
  PASI75 Non-Responder: 583/741 (78.7) %
  PASI75 Responder: 158/741 (21.3) %
  Subjects with reduction of ≥90% from Baseline in PASI (PASI90): 13.8%
  mean (SD) PASI score: 2.99 (3.504)
[1]; Week 16 OC, Overall
  Subjects with reduction of ≥90% from Baseline in PASI (PASI90): 14.4%
  mean (SD) PASI score: 2.57 (2.791)
[1]; Week 40, LOCF, Overall, listed as tapinarof
  PASI75 Responder: 25.3%
[1]; [14]
  PASI75 Non-Responder: 409/492 (83.1) %
  Subjects with reduction of ≥90% from Baseline in PASI (PASI90): 11.2%
  mean (SD) PASI score: 2.80 (3.443)
[1]; Week 40, LOCF, Tapinarof (Pivotal) group, listed as tapinarof
  PASI75 Responder: 16.9%
[1]; [15]
  PASI75 Non-Responder: 146/251 (58.2) %
  PASI75 Responder: 105/251 (41.8) %
  Subjects with reduction of ≥90% from Baseline in PASI (PASI90): 20.7%
  mean (SD) PASI score: 3.28 (3.937)
[1]; Week 40, LOCF, Vehicle (Pivotal) group, listed as tapinarof
  PASI75 Responder: 41.8%
[1]; [16]
  Subjects with reduction of ≥90% from Baseline in PASI (PASI90): 13.1%
  mean (SD) PASI score: 2.38 (2.672)
[1]; [17]
  Subjects with reduction of ≥90% from Baseline in PASI (PASI90): 27.4%
  mean (SD) PASI score: 2.31 (3.008)
[1]; Week 40, Observed Cases, Overall
  PASI75 Responder: 30.9%
[1]; [18]
  PASI75 Non-Responder: 186/236 (78.8) %
  PASI75 Responder: 50/236 (21.2) %
[1]; Week 40, Observed Cases, Tapinarof (Pivotal) group, listed as tapinarof
  PASI75 Responder: 21.2%
[1]; [19]
  PASI75 Non-Responder: 55/113 (48.7) %
  PASI75 Responder: 58/113 (51.3) %
[1]; Week 40, Observed Cases, Vehicle (Pivotal) group, listed as tapinarof
  PASI75 Responder: 51.3%
[1]; Week 40 LOCF, Overall
  PASI75 Non-Responder: 555/743 (74.7) %
  PASI75 Responder: 188/743 (25.3) %
  Subjects with reduction of ≥90% from Baseline in PASI (PASI90): 14.4%
  mean (SD) PASI score: 2.97 (3.622)
[1]; Week 40 OC, Overall
  Subjects with reduction of ≥90% from Baseline in PASI (PASI90): 17.8%
  mean (SD) PASI score: 2.36 (2.781)
[2]
  local tolerability (patient and investigator assessments): well-tolerated
[3]
  decline in plasma concentrations: 10 fold
[4]; minipigs
  systemic exposures with repeat dosing compared to single doses: no changes in systemic exposures
[4]; rats
  systemic exposures with repeat dosing compared to single doses: no changes in systemic exposures
[5]; PSOARING 1
  PGA response (PGA 0 or 1 and ≥2-grade improvement from baseline): 35.4%
  mean change in DLQI from baseline: ~5.0
  patients who achieved a DLQI of 0 or 1: 47.4%
[5]; PSOARING 2
  PGA response (PGA 0 or 1 and ≥2-grade improvement from baseline): 40.2%
  mean change in DLQI from baseline: ~4.7
  patients who achieved a DLQI of 0 or 1: 44.9%
[6]
  time efficacy was maintained after treatment cessation: 4 weeks
